One data set relates to primary AML cells. Description: Mass cytometry lysis assay. Particulars: with ATRA, prior to co-culture with NK cells. The class given is cell-based, human.
Another data set deals with BL. Description: CD38 surface expression after ATRA treatment (flow cytometry). Particulars: high CD38-expressing BL, 10 nM ATRA for 48 hours. The class given is cell-based, human. From the text:
(§1) Cells were stained in PBS buffer containing 2% FBS using anti-CD38/PE (Miltenyi Biotec, clone REA572), CD38 Fc Chimera Protein (R&D Systems, rhCD38) followed by secondary staining with Alexa Fluor 647 AffiniPure Goat Anti-Human IgG (Jackson ImmunoResearch), and Tonbo Ghost Dye 450 (Tonbo Biosciences, San Diego, CA, USA). See representative gating strategy (FIG. 25).
(§2) To further augment the antitumor activity of the CD38-CAR NK cells, we explored combination therapy with ATRA. ATRA is a differentiation agent that upregulates CD38 expression in many cell types. Across cell lines of AML, MM, and BL, we observed variable responses in CD38 expression after treatment with 10 nM ATRA for 48 hours (FIG. 20A). […] Thus, ATRA appears to have a cell line dependent effect on the increase in CD38 surface density and sensitivity to CAR NK cell killing (FIG. 20A, 20C).
A general note: Flow cytometry measures light scatter and fluorescence of single cells or particles in a stream.

In a further data set the test system is AML cell lines. Described as above. In kind it is cell-based, human. Particulars: AML cell lines with lowest baseline CD38, 10 nM ATRA for 48 hours.
From the text: as §1, §2

The next data set relates to MM cell lines. Described as above. Particulars: intermediate to high CD38-expressing MM cell lines, 10 nM ATRA for 48 hours. The class given is cell-based, human.
From the text: as §1, §2

The test system of another data set is CD38^KO NK cells. Description: Effect of ATRA on NK cell function or viability. In kind it is cell-based, human.
The subject of the next data set is human primary T cells. Put plainly: CD38 and CD38-CAR expression by flow cytometry in T cells. In kind it is cell-based. Particulars: T cells, 75,000 vg/cell AAV6 (FIG. 22B). On the procedure:
Human primary T cells were isolated from donor buffy coats using RosetteSep™ Human T Cell Enrichment Cocktail (Stem Cell Technologies, Vancouver, BC, Canada) as described for NK cells. Isolated T cells were stimulated on day 0 with Human T-Activator CD3/CD28 (Thermo Fisher Scientific). Stimulated T cells were cultured in RPMI 1640 media plus Glutamax, 10% FBS at a concentration of 1.0e6 cells/mL and supplemented with 50 IU/mL human recombinant IL-7 and IL-15 (Biolegend, San Diego, CA) every 2-3 days.
Two days after cytokine activation the T cells were electroporated and transduced as described below. After transduction the cells were expanded in RPMI 1640 media plus Glutamax, 10% FBS at 1.0e6 cells/mL with IL-7 and IL-15 supplemented at 50 IU/mL every 2-3 days for up to 10 days.
CD38^KO/CD38-CAR T cells or NK cells were generated by electroporation of HiFi Cas9 Nuclease V3 (Integrated DNA Technologies, Coralville, IA) and gRNA targeting exon 1 of the CD38 gene (5-[…]) (SEQ ID NO: 1). Knock-out cells were then returned to culture media and transduced within 30 minutes with 75,000 vg/cell of Adeno-Associated Virus Type 6 (AAV6, Andelyn Biosciences) vector containing the CAR expression cassette with CD38 homology arms. […]

For a further data set, the system named is H929. Put plainly: 4-hour calcein AM cytotoxicity assay. As to conditions: H929 (MM), 4-hour assay. The class given is cell-based, human. Here is the method: (§3) CSTX002 feeder cells, derived from K562 and transduced to express membrane-bound IL-21 and 4-1BBL (referred to hereafter as FC21) were cultured in RMPI 1640 media containing 10% fetal bovine serum (FBS) at 37° C., 5% CO2. FC21 were treated with 100 Gy x-ray irradiation (Faxitron, Tucson AZ) prior to coculture with NK cells. Human AML cell line MV4-11, MM cell lines MM1S and H929, and BL cell lines Daudi and Raji were purchased from American type culture collection (ATCC). Primary human AML cells (AML10) were obtained from a pediatric patient with relapsed M5 AML and passaged in NOD-SCID mice. Primary human AML, Pre-T ALL, T-PLL, MM, and HSTCL were obtained from the Ohio State University Comprehensive Cancer Center Leukemia Tissue Bank. Tumor cell lines were cultured in RPMI 1640 media plus Glutamax, 10% FBS and routinely tested for mycoplasma contamination. Anonymized human buffy coats were obtained from the American Red Cross of Ohio (Columbus, OH, USA) as healthy donor lymphocyte source material, designated not human subjects research by the institutional review board.
(§4) 4-hour cytotoxicity assays were performed using calcein AM (Fisher Scientific, Hampton, NH). Briefly, target tumor cells were stained with 2 μg/mL calcein AM and co-cultured with effector cells at the indicated Effector:Target ratios. After 4 hours, culture supernatant was assessed by fluorimetry and percent specific lysis calculated using maximum and minimum controls. Cytotoxicity is plotted as percent specific lysis.

For a further data set, the system named is MV4-11. Description: 4-hour calcein AM cytotoxicity assay. In kind it is cell-based, human. As to conditions: MV4-11 (AML), 4-hour assay. On the procedure:
as §3, §4

In the next data set the test system is Raji. Description: 4-hour calcein AM cytotoxicity assay. In kind it is cell-based, human. As to conditions: Raji (BL), 4-hour assay. On the procedure:
as §3, §4

A further data set has as its system human primary NK cells. Put plainly: CD38 and CD38-CAR expression by flow cytometry in NK cells. The class given is cell-based. As to conditions: CAR inserted at CD38 locus, 75,000 vg/cell AAV6, seven days post-transduction (FIG. 18C). On the procedure:
CD38^KO/CD38-CAR T cells or NK cells were generated by electroporation of HiFi Cas9 Nuclease V3 (Integrated DNA Technologies, Coralville, IA) and gRNA targeting exon 1 of the CD38 gene (5-[…]) (SEQ ID NO: 1). Knock-out cells were then returned to culture media and transduced within 30 minutes with 75,000 vg/cell of Adeno-Associated Virus Type 6 (AAV6, Andelyn Biosciences) vector containing the CAR expression cassette with CD38 homology arms.
as §1

Here are results for three molecules from patent US20260207666A1, “CD38 AS INTEGRATION SITE FOR ENHANCED FUNCTION OF GENE-MODIFIED IMMUNE CELLS” (RESEARCH INSTITUTE AT NATIONWIDE CHILDREN'S HOSPITAL, priority 2022, published 2026).

Entries after “also recorded” stand apart in the source; their conditions may differ.

Experimental for primary AML cells: A primary AML patient cell sample (OSU leukemia tissue bank) was cultured in a 6-well plate (pre-coated with rat tail collagen [Corning]) in serum free media (SFEM) supplemented with a cytokine cocktail (IL-6, IL-3, FLT3, GMCSF, GCSF, and TPO at 6.66 ng/mL, EPO at 3.33 ng/mL, SCF at 20 ng/mL; Stem Cell Technologies). The primary AML samples were cultured for 24 hours with or without 10 nM ATRA. After 24 hours, wild-type or CD38^KO/CD38 CAR-NK cells were added at a ratio of 1:1 and co-cultured for 24 hours. Control wells were cultured in parallel. Cell were stained and events were acquired on the Helios CyTOF system (Fluidigm, Toronto, Canada). Cells were identified using markers and analyzed using SPADE.

For the molecule `CC1=C(/C=C/C(C)=C/C=C/C(C)=C/C(=O)O)C(C)(C)CCC1` [ATRA, all-trans retinoic acid], in the data set on primary AML cells, the “live cell population of primary AML cells” value turned out to be 77.5%. For the same molecule, the “CD38 expression after ATRA treatment” value is “no observable increase” in the data set on BL, “greatest proportional increase; also recorded: greatest increases” in the data set on AML cell lines and “minor increase” in the data set with MM cell lines. Further, the “adverse effect on function or viability of CD38^KO NK cells” value in the data set on CD38^KO NK cells was “did not have any adverse effect”.
For the molecule “V3: Isatuximab-based anti-CD38 second-generation CAR construct with CD3ζ, 41BB and CD8α TM/hinge, SEQ ID NO: 27/28”, the “median AAV6 transduction efficiency” value in the data set on human primary T cells is given as 44.4%; with human primary NK cells it was 60.7%. Also, the “cytotoxicity compared to wildtype cells” value in the data set on H929, in the data set with MV4-11 and in the data set with Raji was “significant increase in cytotoxicity” each time.
With “V4: Isatuximab-based anti-CD38 CAR construct with reversed heavy/light chain order, SEQ ID NO: 29/30”, the “median AAV6 transduction efficiency” value worked out at 35.9% in the data set with human primary T cells and 61.9% in the data set with human primary NK cells. Also, the “cytotoxicity compared to wildtype cells” value in the data set on H929, in the data set with MV4-11 and in the data set on Raji was “significant increase in cytotoxicity” each time.
